For three molecules, IC50 results are on record in article PMC7671475 (Journal of Inflammation Research, 2020).

This test addresses Syk (spleen tyrosine kinase) (Homo sapiens, UniProt P43405). The experiment in a line: ADP-Glo kinase assay with Promega Syk Kinase Enzyme System. The test is classed as biochemical. In general terms: ADP-Glo first removes unused ATP, then detects ADP through luciferase.

A word on the IC50: it is the concentration needed to halve the response being measured. High values mean lower potency, low ones higher potency. Regarding `O=c1cc(-c2ccc(O)cc2)oc2c([C@@H]3O[C@H](CO)[C@@H](O)[C@H](O)[C@H]3O)c(O)c([C@@H]3O[C@H](CO)[C@@H](O)[C@H](O)[C@H]3O)c(O)c12` [Vic-2, vicenin-2], half-maximal inhibition (IC50) was put at 284 nM.
Next, `O=C(/C=C/c1ccc(O)c(O)c1)O[C@H](Cc1ccc(O)c(O)c1)C(=O)O` [RosA, rosmarinic acid]: 114 nM.
In turn, `CC1=CC(=O)CC(C)(C)[C@@]1(O)/C=C/[C@@H](C)O[C@@H]1O[C@H](CO)[C@@H](O)[C@H](O)[C@H]1O` [RosS, roseoside] showed an IC50 of 160 nM.
